# Data from ChEMBL document CHEMBL4390652, “Design, biological evaluation and X-ray crystallography of nanomolar multifunctional ligands targeting simultaneously acetylcholinesterase and glycogen synthase kinase-3” (Eur J Med Chem, 2019).
# pIC50: −log10 of the molar value.
# Columns and labels:
# [1] = target: Serine/threonine-protein kinase Nek4 (Homo sapiens) (UniProt P51957); assay: Binding affinity to wild-type human full length NEK4 (M1 to F841 residues) expressed in mammalian expression system assessed as residual binding level at 10 uM by Kinomescan method relative to control
# [2] = target: Muscle, skeletal receptor tyrosine-protein kinase (Homo sapiens) (UniProt O15146); assay: Binding affinity to wild-type human partial length MUSK (M553 to V869 residues) expressed in bacterial expression system assessed as residual binding level at 10 uM by Kinomescan method relative to control
# [3] = target: Mitogen-activated protein kinase 15 (Homo sapiens) (UniProt Q8TD08); assay: Binding affinity to wild-type human partial length ERK8 (M1 to P437 residues) expressed in bacterial expression system assessed as residual binding level at 10 uM by Kinomescan method relative to control
# [4] = target: Calcium/calmodulin-dependent protein kinase type II subunit gamma (Homo sapiens) (UniProt Q13555); assay: Binding affinity to wild-type human partial length CAMK2G (R9 to A303 residues) expressed in bacterial expression system assessed as residual binding level at 10 uM by Kinomescan method relative to control
# [5] = target: Cyclin-dependent kinase 4 (Homo sapiens) (UniProt P11802); assay: Binding affinity to wild-type human full length CDK4 (M1 to E303 residues) expressed in mammalian expression system assessed as residual binding level at 10 uM by Kinomescan method relative to control
# [6] = target: Serine/threonine-protein kinase Nek9 (Homo sapiens) (UniProt Q8TD19); assay: Binding affinity to wild-type human partial length NEK9 (P32 to R328 residues) expressed in bacterial expression system assessed as residual binding level at 10 uM by Kinomescan method relative to control
# [7] = target: Myotonin-protein kinase (Homo sapiens) (UniProt Q09013); assay: Binding affinity to wild-type human partial length DMPK (V47 to V415 residues) expressed in bacterial expression system assessed as residual binding level at 10 uM by Kinomescan method relative to control
# [8] = target: Cyclin-dependent kinase 11A (Homo sapiens) (UniProt Q9UQ88); assay: Binding affinity to wild-type human partial length CDC2L2 (D391 to K730 residues) expressed in bacterial expression system assessed as residual binding level at 10 uM by Kinomescan method relative to control
# [9] = target: Serine/threonine-protein kinase 10 (Homo sapiens) (UniProt O94804); assay: Binding affinity to wild-type human partial length LOK (E16 to V314 residues) expressed in bacterial expression system assessed as residual binding level at 10 uM by Kinomescan method relative to control
# [10] = tested on: Tyrosine-protein kinase ABL1 (Homo sapiens), P00519 [Q252H]; assay: Binding affinity to human phosphorylated ABL1 Q252H mutant expressed in mammalian expression system assessed as residual binding level at 10 uM by Kinomescan method relative to control
# SH-SY5Y = assay: Cytotoxicity against human SH-SY5Y cells assessed as reduction in cell viability incubated for 72 hrs by MTT assay; format: cell-based
# [11] = target: Casein kinase I isoform gamma-3 (Homo sapiens) (UniProt Q9Y6M4); assay: Binding affinity to wild-type human full length CSNK1G3 (M1 to K447 residues) expressed in bacterial expression system assessed as residual binding level at 10 uM by Kinomescan method relative to control
# Chain of Casein kinase I isoform gamma-3 (Homo sapiens) (Q9Y6M4 whole entry, looked up, the tested form may be a part, canonical isoform): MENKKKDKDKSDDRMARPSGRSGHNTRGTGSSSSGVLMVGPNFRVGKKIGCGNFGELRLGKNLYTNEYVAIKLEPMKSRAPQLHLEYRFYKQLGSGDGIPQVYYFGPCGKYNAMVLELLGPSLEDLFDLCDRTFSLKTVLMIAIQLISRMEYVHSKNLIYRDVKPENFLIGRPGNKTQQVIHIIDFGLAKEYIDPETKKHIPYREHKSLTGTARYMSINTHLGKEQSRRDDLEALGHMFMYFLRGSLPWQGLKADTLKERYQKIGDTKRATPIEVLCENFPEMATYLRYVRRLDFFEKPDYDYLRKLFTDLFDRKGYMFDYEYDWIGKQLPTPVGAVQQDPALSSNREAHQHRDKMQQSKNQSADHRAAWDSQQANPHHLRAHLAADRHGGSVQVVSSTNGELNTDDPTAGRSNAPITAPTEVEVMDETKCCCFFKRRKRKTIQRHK
# [12] = target: Serine/threonine-protein kinase mTOR (Homo sapiens) (UniProt P42345); assay: Binding affinity to wild-type human partial length MTOR (L1382 to W2549 residues) expressed in mammalian expression system assessed as residual binding level at 10 uM by Kinomescan method relative to control
# [13] = target: Cytoplasmic tyrosine-protein kinase BMX (Homo sapiens) (UniProt P51813); assay: Binding affinity to wild-type human full length BMX (M1 to H675 residues) expressed in bacterial expression system assessed as residual binding level at 10 uM by Kinomescan method relative to control
# Chain of Cytoplasmic tyrosine-protein kinase BMX (Homo sapiens) (P51813 whole entry, the tested form may be a part): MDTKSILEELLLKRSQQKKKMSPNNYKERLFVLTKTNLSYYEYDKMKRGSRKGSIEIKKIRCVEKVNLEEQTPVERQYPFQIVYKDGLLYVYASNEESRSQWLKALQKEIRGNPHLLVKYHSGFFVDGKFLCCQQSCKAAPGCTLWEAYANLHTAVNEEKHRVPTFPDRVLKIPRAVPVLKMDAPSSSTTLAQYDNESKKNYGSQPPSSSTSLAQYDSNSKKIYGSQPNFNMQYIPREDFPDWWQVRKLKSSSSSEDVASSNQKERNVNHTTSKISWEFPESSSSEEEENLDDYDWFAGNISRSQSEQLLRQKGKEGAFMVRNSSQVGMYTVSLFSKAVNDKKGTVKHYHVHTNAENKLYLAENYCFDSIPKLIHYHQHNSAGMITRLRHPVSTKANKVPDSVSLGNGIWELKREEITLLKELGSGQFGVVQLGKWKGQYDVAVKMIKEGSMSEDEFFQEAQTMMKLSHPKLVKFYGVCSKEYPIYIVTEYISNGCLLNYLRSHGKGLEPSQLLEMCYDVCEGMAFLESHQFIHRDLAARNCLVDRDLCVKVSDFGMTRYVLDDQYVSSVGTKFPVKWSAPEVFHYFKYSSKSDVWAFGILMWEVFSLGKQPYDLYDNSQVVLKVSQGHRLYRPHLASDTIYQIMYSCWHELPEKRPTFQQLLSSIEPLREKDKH
# [14] = target: Vascular endothelial growth factor receptor 2 (Homo sapiens) (UniProt P35968); assay: Binding affinity to wild-type human partial length VEGFR2 (R787 to P1253 residues) expressed in mammalian expression system assessed as residual binding level at 10 uM by Kinomescan method relative to control
# [15] = target: Cyclin-dependent kinase 9 (Homo sapiens) (UniProt P50750); assay: Binding affinity to wild-type human full length CDK9 (M1 to F372 residues) expressed in bacterial expression system assessed as residual binding level at 10 uM by Kinomescan method relative to control
# Chain of Cyclin-dependent kinase 9 (Homo sapiens) (P50750 whole entry, the tested form may be a part): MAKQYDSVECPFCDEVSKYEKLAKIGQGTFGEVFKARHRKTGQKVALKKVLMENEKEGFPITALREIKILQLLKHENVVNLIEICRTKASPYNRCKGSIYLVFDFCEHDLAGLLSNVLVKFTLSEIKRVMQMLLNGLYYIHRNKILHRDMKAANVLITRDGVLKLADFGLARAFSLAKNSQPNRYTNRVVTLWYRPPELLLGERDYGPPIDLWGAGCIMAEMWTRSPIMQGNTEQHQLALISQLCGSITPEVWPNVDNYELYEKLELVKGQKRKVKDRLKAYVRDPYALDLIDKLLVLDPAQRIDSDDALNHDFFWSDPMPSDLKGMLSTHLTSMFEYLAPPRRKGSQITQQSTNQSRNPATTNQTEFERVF
# [16] = target: Receptor tyrosine-protein kinase erbB-3 (Homo sapiens) (UniProt P21860); assay: Binding affinity to wild-type human partial length ERBB3 (G684 to A987 residues) expressed in mammalian expression system assessed as residual binding level at 10 uM by Kinomescan method relative to control
# Chain of Receptor tyrosine-protein kinase erbB-3 (Homo sapiens) (P21860 whole entry, the tested form may be a part): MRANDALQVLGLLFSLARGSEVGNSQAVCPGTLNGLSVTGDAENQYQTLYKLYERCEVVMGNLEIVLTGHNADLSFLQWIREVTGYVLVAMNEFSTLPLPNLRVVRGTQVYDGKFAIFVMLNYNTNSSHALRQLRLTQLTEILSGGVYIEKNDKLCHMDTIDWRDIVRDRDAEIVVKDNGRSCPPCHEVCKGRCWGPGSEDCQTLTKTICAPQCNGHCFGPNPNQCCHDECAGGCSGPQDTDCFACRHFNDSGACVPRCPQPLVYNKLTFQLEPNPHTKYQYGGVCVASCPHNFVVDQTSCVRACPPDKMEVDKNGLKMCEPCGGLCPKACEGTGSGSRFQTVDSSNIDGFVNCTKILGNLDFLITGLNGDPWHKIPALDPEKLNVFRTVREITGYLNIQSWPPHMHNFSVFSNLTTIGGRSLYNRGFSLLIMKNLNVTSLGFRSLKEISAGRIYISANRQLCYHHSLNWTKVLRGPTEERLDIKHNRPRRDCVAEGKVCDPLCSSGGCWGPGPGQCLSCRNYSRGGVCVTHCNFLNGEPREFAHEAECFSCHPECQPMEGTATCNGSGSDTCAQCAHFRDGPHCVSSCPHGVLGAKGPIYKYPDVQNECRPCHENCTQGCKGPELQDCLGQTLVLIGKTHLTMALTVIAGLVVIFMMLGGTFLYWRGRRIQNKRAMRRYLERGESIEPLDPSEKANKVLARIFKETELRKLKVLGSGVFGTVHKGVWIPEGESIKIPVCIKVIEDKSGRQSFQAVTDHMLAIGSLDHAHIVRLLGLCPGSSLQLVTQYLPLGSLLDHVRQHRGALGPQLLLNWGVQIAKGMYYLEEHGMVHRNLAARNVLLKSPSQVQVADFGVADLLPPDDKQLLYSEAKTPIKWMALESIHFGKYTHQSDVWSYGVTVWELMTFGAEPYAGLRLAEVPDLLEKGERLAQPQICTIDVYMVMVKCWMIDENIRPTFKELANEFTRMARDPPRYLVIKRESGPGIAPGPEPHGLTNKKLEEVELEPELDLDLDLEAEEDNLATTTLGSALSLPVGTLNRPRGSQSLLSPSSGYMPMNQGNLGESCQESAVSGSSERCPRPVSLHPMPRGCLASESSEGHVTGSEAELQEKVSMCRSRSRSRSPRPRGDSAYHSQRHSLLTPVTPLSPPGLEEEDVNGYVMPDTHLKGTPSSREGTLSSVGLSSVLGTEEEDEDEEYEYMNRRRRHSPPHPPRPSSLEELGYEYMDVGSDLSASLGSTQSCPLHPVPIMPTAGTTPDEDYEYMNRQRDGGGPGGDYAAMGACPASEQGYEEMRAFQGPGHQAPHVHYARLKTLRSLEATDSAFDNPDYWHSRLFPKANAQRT
# [17] = target: Serine/threonine-protein kinase RIO1 (Homo sapiens) (UniProt Q9BRS2); assay: Binding affinity to wild-type human full length RIOK1 (M1 to K568 residues) expressed in bacterial expression system assessed as residual binding level at 10 uM by Kinomescan method relative to control
# Chain of Serine/threonine-protein kinase RIO1 (Homo sapiens) (Q9BRS2 whole entry, the tested form may be a part): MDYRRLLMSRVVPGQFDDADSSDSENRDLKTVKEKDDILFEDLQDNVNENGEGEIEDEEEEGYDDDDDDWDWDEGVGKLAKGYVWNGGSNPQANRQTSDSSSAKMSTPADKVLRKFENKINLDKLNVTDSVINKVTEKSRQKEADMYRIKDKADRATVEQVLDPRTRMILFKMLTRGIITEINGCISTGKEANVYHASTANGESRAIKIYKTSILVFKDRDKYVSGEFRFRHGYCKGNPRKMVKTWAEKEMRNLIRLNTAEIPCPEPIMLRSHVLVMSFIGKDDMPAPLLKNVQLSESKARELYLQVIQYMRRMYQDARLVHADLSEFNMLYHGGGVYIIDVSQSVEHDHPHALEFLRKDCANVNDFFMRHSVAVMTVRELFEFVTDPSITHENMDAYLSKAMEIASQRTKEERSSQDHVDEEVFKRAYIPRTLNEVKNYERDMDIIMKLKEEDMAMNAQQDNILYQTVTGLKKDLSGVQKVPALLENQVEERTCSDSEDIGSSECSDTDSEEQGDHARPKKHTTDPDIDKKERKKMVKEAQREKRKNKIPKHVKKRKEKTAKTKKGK
# [18] = target: Glycogen synthase kinase-3 alpha (Homo sapiens) (UniProt P49840); assay: Binding affinity to wild-type human full length GSK3A (M1 to S483 residues) expressed in bacterial expression system assessed as residual binding level at 10 uM by Kinomescan method relative to control
# Chain of Glycogen synthase kinase-3 alpha (Homo sapiens) (P49840 2-483 limits assumed): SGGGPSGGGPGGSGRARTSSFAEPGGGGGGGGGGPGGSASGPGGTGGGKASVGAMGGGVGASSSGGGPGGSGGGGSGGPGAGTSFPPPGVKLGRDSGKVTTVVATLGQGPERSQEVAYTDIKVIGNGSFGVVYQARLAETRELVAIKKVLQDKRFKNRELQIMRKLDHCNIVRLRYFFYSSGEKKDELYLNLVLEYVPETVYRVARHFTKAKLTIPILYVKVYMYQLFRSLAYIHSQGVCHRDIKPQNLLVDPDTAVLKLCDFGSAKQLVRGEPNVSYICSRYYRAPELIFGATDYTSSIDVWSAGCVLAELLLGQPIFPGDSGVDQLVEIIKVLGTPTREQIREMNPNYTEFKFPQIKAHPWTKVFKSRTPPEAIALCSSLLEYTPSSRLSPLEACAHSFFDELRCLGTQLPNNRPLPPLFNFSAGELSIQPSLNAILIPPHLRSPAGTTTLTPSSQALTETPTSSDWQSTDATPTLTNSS
# [19] = target: Ephrin type-A receptor 8 (Homo sapiens) (UniProt P29322); assay: Binding affinity to wild-type human partial length EPHA8 (Q608 to C920 residues) expressed in bacterial expression system assessed as residual binding level at 10 uM by Kinomescan method relative to control
# [20] = target: Serine/threonine-protein kinase SIK3 (Homo sapiens) (UniProt Q9Y2K2); assay: Binding affinity to wild-type human partial length QSK (A90 to L395 residues) expressed in mammalian expression system assessed as residual binding level at 10 uM by Kinomescan method relative to control
# [21] = target: Serine/threonine-protein kinase PAK 1 (Homo sapiens) (UniProt Q13153); assay: Binding affinity to wild-type human partial length PAK1 (S149 to H545 residues) expressed in bacterial expression system assessed as residual binding level at 10 uM by Kinomescan method relative to control
# Chain of Serine/threonine-protein kinase PAK 1 (Homo sapiens) (Q13153 whole entry, the tested form may be a part): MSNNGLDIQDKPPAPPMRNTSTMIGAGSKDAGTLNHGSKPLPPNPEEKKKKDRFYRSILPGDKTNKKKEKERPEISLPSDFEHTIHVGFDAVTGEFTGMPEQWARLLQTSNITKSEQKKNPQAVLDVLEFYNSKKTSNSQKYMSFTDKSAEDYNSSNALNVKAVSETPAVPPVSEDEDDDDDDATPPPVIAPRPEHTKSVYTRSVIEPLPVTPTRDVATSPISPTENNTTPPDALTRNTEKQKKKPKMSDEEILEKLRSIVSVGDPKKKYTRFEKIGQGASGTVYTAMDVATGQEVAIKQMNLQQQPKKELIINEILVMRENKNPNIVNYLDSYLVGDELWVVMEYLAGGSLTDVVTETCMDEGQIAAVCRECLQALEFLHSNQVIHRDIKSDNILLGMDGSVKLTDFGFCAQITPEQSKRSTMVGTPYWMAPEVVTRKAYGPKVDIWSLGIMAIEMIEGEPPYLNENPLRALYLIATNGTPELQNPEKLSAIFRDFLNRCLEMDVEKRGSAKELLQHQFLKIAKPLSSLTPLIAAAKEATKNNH
# [22] = target: Serine/threonine-protein kinase Nek1 (Homo sapiens) (UniProt Q96PY6); assay: Binding affinity to wild-type human partial length NEK1 (M1 to K278 residues) expressed in bacterial expression system assessed as residual binding level at 10 uM by Kinomescan method relative to control
# [23] = target: Tyrosine-protein kinase Fgr (Homo sapiens) (UniProt P09769); assay: Binding affinity to wild-type human partial length FGR (L233 to T529 residues) expressed in bacterial expression system assessed as residual binding level at 10 uM by Kinomescan method relative to control
# Chain of Tyrosine-protein kinase Fgr (Homo sapiens) (P09769 2-529 limits assumed): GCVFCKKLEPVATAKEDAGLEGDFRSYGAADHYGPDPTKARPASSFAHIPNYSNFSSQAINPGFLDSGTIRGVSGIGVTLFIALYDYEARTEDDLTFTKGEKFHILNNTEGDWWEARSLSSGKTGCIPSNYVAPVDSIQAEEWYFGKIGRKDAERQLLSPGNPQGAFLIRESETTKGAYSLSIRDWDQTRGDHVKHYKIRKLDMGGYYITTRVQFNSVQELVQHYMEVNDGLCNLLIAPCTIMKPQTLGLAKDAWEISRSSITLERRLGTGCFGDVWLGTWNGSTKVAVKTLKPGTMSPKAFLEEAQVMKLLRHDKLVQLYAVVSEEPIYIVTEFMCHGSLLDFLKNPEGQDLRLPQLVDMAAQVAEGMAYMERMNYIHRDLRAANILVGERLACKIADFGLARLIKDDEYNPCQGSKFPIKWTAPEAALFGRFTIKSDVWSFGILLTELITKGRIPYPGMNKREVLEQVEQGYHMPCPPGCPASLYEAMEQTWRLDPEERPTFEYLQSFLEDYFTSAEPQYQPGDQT
# [24] = target: Protein kinase C iota type (Homo sapiens) (UniProt P41743); assay: Binding affinity to wild-type human partial length PRKCI (H215 to V587 residues) expressed in mammalian expression system assessed as residual binding level at 10 uM by Kinomescan method relative to control
smiles,measurement,setting,value
O=C(Nc1cc(-c2cn(CCNc3c4c(nc5ccccc35)CCCC4)nn2)ccn1)Nc1cccc2c1C1CCCCN1C2=O (racemic),Activity,[1],98%
same,Activity,[2],49%
same,Activity,[3],0.05%
same,Activity,[4],64%
same,Activity,[5],3%
same,Activity,[6],62%
same,Activity,[7],18%
same,Activity,[8],99%
same,Activity,[9],99%
same,Activity,[10],1.4%
same,pIC50,SH-SY5Y,4.89
same,Activity,[11],80%
same,Activity,[12],100%
same,Activity,[13],100%
same,Activity,[14],9.1%
same,Activity,[15],3.8%
same,Activity,[16],73%
same,Activity,[17],5.2%
same,Activity,[18],0.3%
same,Activity,[19],80%
same,Activity,[20],23%
same,Activity,[21],88%
same,Activity,[22],80%
same,Activity,[23],97%
same,Activity,[24],100%
